From US11458126B2, “DHODH inhibitor for use in treating hematologic cancers” (PTC THERAPEUTICS, INC., priority 2017, dated 2022)

Experiments:
[1] = tested on: de novo pyrimidine nucleotide synthesis in HT1080 cells; experiment: 15N-glutamine tracing study: pyrimidine nucleotide synthesis metabolites by LC-MS/MS; type: cell-based, human
Protocol: HT1080 cells in log phase growth were seeded in 10 cm dishes (4×10^6 cells/dish) and cultured in regular DMEM supplemented with 10% fetal bovine serum (FBS), penicillin (50 IU/mL), and streptomycin (50 μg/mL). After overnight incubation, the culture medium was replenished with glutamine free DMEM containing 1 g/L glucose, 10% fetal bovine serum (FBS), penicillin (50 IU/mL), streptomycin (50 μg/mL) and 1 mM ^15N-glutamine (Sigma, Cat #: 490024). After culturing for the indicated time in the presence of compounds or vehicle control (0.5% DMSO), the cells were washed once with cold PBS (5 mL) and harvested and lysed in cold distilled H2O (0.5 mL) with −80° C. methanol (1 mL) using a plastic cell scraper. The cell lysates were then centrifuged at 10,000×g for 15 minutes at 4° C., and supernatant collected for LC-MS/MS analysis of the ^15N-labelled de novo pyrimidine synthesis metabolites.
LC-MS/MS Detection of Metabolites. Quantification of ^15N-labelled de novo pyrimidine synthesis metabolites was carried out on an Accela pump and a PAL auto-sampler coupled to a TSQ Quantum Ultra mass spectrometer. The mass spectrometer was equipped with a heated electrospray ionization source operated in negative-ion mode (Thermo Fisher Scientific, Waltham, Mass.). The ion spray voltage was set at 2500 V, capillary temperature at 350° C., vaporizer temperature at 300° C.; sheath gas pressure at 50 units and auxiliary gas pressure at 5 units. A Thermo Fisher Scientific Hypercab column (3μ, 50×2.1 mm) was used and maintained at 50° C. for metabolite separation. Mobile phase A was 10 mM NH4HCO3 in water, pH 9.4, and mobile phase B was 10 mM NH4HCO3 in ACN-water (9:1). The flow rate was set at 0.50 mL/min.

[2] = Blood-brain barrier penetration, whole-body autoradiography; type: in vivo; settings: evaluation, rats
[3] = cells treated 100 nm for 8 hours in presence of 15N-glutamine, BLDL = Below Detection Limits

With `COc1ccc([C@H]2c3[nH]c4ccc(Cl)cc4c3CCN2C(=O)Oc2ccc(Cl)cc2)cc1` [Cpd 1, 4-chlorophenyl (S)-6-chloro-1-(4-methoxyphenyl)-1,3,4,9-tetrahydro-2H-pyrido[3,4-b]indole-2-carboxylate] the “de novo pyrimidine synthesis (15N-labelled CTP, UTP and UMP)” value ([1]; HT1080 cells, LCMS (FIG. 1b)) was “inhibits de novo pyrimidine synthesis”, the “^15N-Orotate” value ([1]; cells treated 100 nm for 8 hours in presence of 15N-glutamine) was 44.8 ± 6.1 µM and the “^15N-DHO” value [1, 3] was 18.1 ± 5.5 µM. The “^15N-UMP” value [1, 3] was “BLDL”, the “pyrazofurin-MP-induced increase of 15N-orotate” value ([1]; co-treatment with pyrazofurin-MP, HT1080 cells (FIG. 1c)) was “blocked” and the blood-brain barrier penetration [2] was “penetrates the blood-brain barrier”.
